How the values were obtained:
Assay type in all cases: in vivo, human
[1] = test system: p-Tau/total-Tau; experiment: Phase II placebo-controlled trial: ratio p-Tau/total-Tau in cerebrospinal fluid; conditions: CSF, AD patients; for p-Tau/total-Tau change at week 52 from baseline, difference from placebo group / p-Tau/total-Tau change at week 52 from baseline, least square means (standard error): First total-Tau measurement (Table 2); for p-Tau/total-Tau (remeasured total-Tau) change at week 52 from baseline, difference from placebo group / p-Tau/total-Tau (remeasured total-Tau) change at week 52 from baseline, least square means (standard error): Total-Tau concentration remeasured (Table 3)
Excerpt: (§1) Test Example 1 Multicenter randomized double-blind phase II placebo-controlled trial for assessing effectiveness and safety of Compound A in mild to moderate AD patients Subject (selection criteria): Patients were screened in a period from 42 days before treatment assignment to the assignment based on the following selection criteria. • Patients who were probable AD and are 55 years old or older and 85 years old or younger at the time of obtaining consent of screening. • Patients with an MMSE score of 12 to 22 at the time of screening • Patients with a Modified Hachinski Ischemia Scale score of 4 or less • Patients who have been treated with a donepezil hydrochloride or rivastigmine transdermal system for at least 4 months before the baseline and with a stable dose thereof for 3 months before the baseline. • In the case of patients who have received memantine in addition to being treated with a donepezil hydrochloride or rivastigmine transdermal system, patients who have been treated with memantine for at least 4 months before the baseline and with a stable dose thereof for 3 months before the baseline. • Patients whose brain MRI or CT results match AD at the time of screening Organization of groups: Patients matched (484 patients) were randomly divided into the following 3 groups and the trial was started. (1) High dose group: 224 mg of a test compound (160 mg in terms of Compound A) was orally administered once a day for 4 weeks and then 448 mg of a test compound (320 mg in terms of Compound A) was orally administered once a day for 48 weeks (158 patients) (2) Low dose group: 224 mg of a test compound (160 mg in terms of Compound A) was orally administered once a day for 52 weeks (166 patients) (3) Placebo group: placebo was orally administered once a day for 52 weeks (158 patients) Method of assessment: Cerebrospinal fluid biomarker
(§2) Cerebrospinal fluid was collected by lumber puncture from subjects at baseline (within 2 weeks before the first day of administration of investigational drug) and after 52 weeks (within 2 weeks before week 52), and divided into 9-ml aliquots in polyethylene tubes and stored at -80° C. The total tau protein concentration (total-Tau) in the cerebrospinal fluid was measured by an ECL method. The phosphorylated tau protein concentration (p-Tau) was measured by ELISA method. The Aβ-42 value in the cerebrospinal fluid was measured by sandwich ELIZA which has been designed for measurement of AP including 1 amino acid and 42 amino acids.
(§3) The total-Tau concentration was measured twice using the same cerebrospinal fluid sample.
(§4) Change in cerebrospinal fluid (CSF) biomarkers at week 52 from the baseline was compared by analysis of covariance between a high dose group and a placebo group, and between a low dose group and the placebo group. For models, the baseline of cerebrospinal fluid (CSF) biomarkers was included as a covariate and the significance level was 5%.

[2] = test system: phosphorylated tau protein (p-Tau); experiment: Phase II placebo-controlled trial: cerebrospinal fluid biomarker p-Tau (ELISA); conditions: for p-Tau change at week 52 from baseline, difference from placebo group / p-Tau change at week 52 from baseline, least square means (standard error): CSF
Excerpt: as §1, §2, §4

[3] = test system: Aβ; experiment: Phase II placebo-controlled trial: concentration of Aβ in cerebrospinal fluid (overall statement); conditions: Compound A group compared to the placebo group; mild to moderate AD patients
Excerpt: as §1, with “(1) High dose group: 224 mg of a test compound (160 mg in terms of Compound A) was orally administered once a day for 4 weeks and then 448 mg of a test compound (320 mg in terms of Compound A) was orally administered once a day for 48 weeks (158 patients) (2) Low dose group: 224 mg of a test compound (160 mg in terms of Compound A) was orally administered once a day for 52 weeks (166 patients) (3) Placebo group: placebo was orally administered once a day for 52 weeks (158 patients) Method of assessment: Cerebrospinal fluid biomarker” left out

[4] = test system: Aβ-42; experiment: Phase II placebo-controlled trial: cerebrospinal fluid biomarker Aβ-42 (sandwich ELISA); conditions: CSF, mild to moderate AD patients
Excerpt: as §1, §2
(§5) Change in cerebrospinal fluid (CSF) biomarkers at week 52 from the baseline was compared by analysis of covariance between a high dose group and a placebo group, and between a low dose group and the placebo group. […]

[5] = test system: Aβ-40; experiment: Phase II placebo-controlled trial: cerebrospinal fluid biomarker Aβ-40; conditions: CSF, mild to moderate AD patients
Excerpt: as §1, §2, §5

[6] = test system: total tau protein (total-Tau); experiment: Phase II placebo-controlled trial: cerebrospinal fluid biomarker total-Tau (ECL method, measured twice); conditions: CSF, AD patients; for total-Tau change at week 52 from baseline, difference from placebo group / total-Tau change at week 52 from baseline, least square means (standard error): First measurement (Table 2); for total-Tau (remeasured) change at week 52 from baseline, difference from placebo group / total-Tau (remeasured) change at week 52 from baseline, least square means (standard error): Total-Tau concentration remeasured (Table 3)
Excerpt: as §1, §2, §3, §4

[7] = test system: Aβ-38; experiment: Phase II placebo-controlled trial: cerebrospinal fluid biomarker Aβ-38; conditions: CSF, mild to moderate AD patients
Excerpt: as §1, §2, §5

[8] = High dose group: 160 mg 4 weeks then 320 mg 48 weeks in terms of Compound A, oral once a day
[9] = Low dose group: 160 mg in terms of Compound A, oral once a day 52 weeks
[10] = High dose group: 160 mg 4 weeks then 320 mg 48 weeks in terms of Compound A, oral once a day, mild to moderate AD patients
[11] = Low dose group: 160 mg in terms of Compound A, oral once a day 52 weeks, mild to moderate AD patients

In the case of `OC1CN(CCCOCCc2ccc3sccc3c2)C1` [Compound A, 1-(3-(2-(1-benzothiophen-5-yl)ethoxy)propyl)azetidin-3-ol], the “p-Tau/total-Tau change at week 52 from baseline, difference from placebo group” value [1, 8] is reported as −11.11%, the “p-Tau/total-Tau change at week 52 from baseline, least square means (standard error)” value [1, 8] is reported as −4.47(3.21) % and the “p-Tau/total-Tau change at week 52 from baseline, difference from placebo group” value [1, 9] is reported as −4.60%. For the same compound, the “p-Tau/total-Tau change at week 52 from baseline, least square means (standard error)” value [1, 9] was 2.04(4.33) %, the “p-Tau/total-Tau (remeasured total-Tau) change at week 52 from baseline, difference from placebo group” value [1, 8] was 0.26% and the “p-Tau/total-Tau (remeasured total-Tau) change at week 52 from baseline, least square means (standard error)” value [1, 8] was 0.04(0.17) %. The “p-Tau/total-Tau (remeasured total-Tau) change at week 52 from baseline, difference from placebo group” value [1, 9] was 0.03%, the “p-Tau/total-Tau (remeasured total-Tau) change at week 52 from baseline, least square means (standard error)” value [1, 9] was −0.20(0.20) % and the “change in the concentration of p-Tau in the cerebrospinal fluid at week 52 from the baseline” value ([2]; Compound A group compared to the placebo group, mild to moderate AD patients) was “consistently tended to be decreased in a dose-dependent manner”. For the same compound, the “change in the concentration of p-Tau in the cerebrospinal fluid at week 52 from the baseline, statistical comparison” value ([2]; Compound A high dose group versus placebo group, analysis of covariance, significance level 5%) was “statistically significant difference”, the “p-Tau change at week 52 from baseline, difference from placebo group” value [2, 10] was -7.59 pg/mL and the “p-Tau change at week 52 from baseline, least square means (standard error)” value [2, 10] was −7.30(2.281) pg/mL. For the same compound, the “p-Tau change at week 52 from baseline, difference from placebo group” value [2, 11] was -4.23 pg/mL, the “p-Tau change at week 52 from baseline, least square means (standard error)” value [2, 11] was −3.94(2.715) pg/mL and the “change in the concentration of AP in the cerebrospinal fluid at week 52 from the baseline” value [3] was “tended to be increased in a dose dependent manner”. The “Aβ-42 change at week 52 from baseline, difference from placebo group” value [4, 8] was 32.90 pg/mL, the “Aβ-42 change at week 52 from baseline, least square means (standard error)” value [4, 8] was 11.55(25.578) pg/mL and the “Aβ-42 change at week 52 from baseline, difference from placebo group” value [4, 9] was 11.65 pg/mL. The “Aβ-42 change at week 52 from baseline, least square means (standard error)” value [4, 9] was −9.70(30.362) pg/mL, the “Aβ-40 change at week 52 from baseline, difference from placebo group” value [5, 8] was 1206.87 pg/mL and the “Aβ-40 change at week 52 from baseline, least square means (standard error)” value [5, 8] was 290.84(466.956) pg/mL. The “Aβ-40 change at week 52 from baseline, difference from placebo group” value [5, 9] was 75.71 pg/mL, the “Aβ-40 change at week 52 from baseline, least square means (standard error)” value [5, 9] was −840.32(559.467) pg/mL and the “total-Tau change at week 52 from baseline, difference from placebo group” value [6, 8] was 81.94 pg/mL. For the same compound, the “total-Tau change at week 52 from baseline, least square means (standard error)” value [6, 8] was 11.38(47.304) pg/mL, the “total-Tau change at week 52 from baseline, difference from placebo group” value [6, 9] was 28.19 pg/mL and the “total-Tau change at week 52 from baseline, least square means (standard error)” value [6, 9] was −42.36(63.947) pg/mL. The “total-Tau (remeasured) change at week 52 from baseline, difference from placebo group” value [6, 8] was -129.57 pg/mL, the “total-Tau (remeasured) change at week 52 from baseline, least square means (standard error)” value [6, 8] was −101.35 (32.552) pg/mL and the “total-Tau (remeasured) change at week 52 from baseline, difference from placebo group” value [6, 9] was -36.10 pg/mL. For the same compound, the “total-Tau (remeasured) change at week 52 from baseline, least square means (standard error)” value [6, 9] was −7.88 (38.632) pg/mL, the “Aβ-38 change at week 52 from baseline, difference from placebo group” value [7, 8] was 525.66 pg/mL and the “Aβ-38 change at week 52 from baseline, least square means (standard error)” value [7, 8] was 178.64(221.978) pg/mL. For the same compound, the “Aβ-38 change at week 52 from baseline, difference from placebo group” value [7, 9] was 127.43 pg/mL and the “Aβ-38 change at week 52 from baseline, least square means (standard error)” value [7, 9] was −219.58(266.774) pg/mL.

From US20230346745A1, “AGENT FOR PREVENTING OR TREATING TAUOPATHY” (FUJIFILM Toyama Chemical Co., Ltd., priority 2017, published 2023)
